Values of other authors in patent US5122371A (priority 1991, dated 1992).

What was measured:
Na+ K+-ATPase enzyme = details: known property of cardiac glycosides
[1] = in vivo

Compound | Effect on Na+ K+-ATPase enzyme activity (Na+ K+-ATPase enzyme) | half-life [1] [h]
C[C@H]1O[C@@H](O[C@H]2[C@@H](O)C[C@H](O[C@H]3[C@@H](O)C[C@H](O[C@H]4CC[C@@]5(C)[C@H](CC[C@@H]6[C@@H]5C[C@@H](O)[C@]5(C)[C@@H](C7=CC(=O)OC7)CC[C@]65O)C4)O[C@@H]3C)O[C@@H]2C)C[C@H](O)[C@@H]1O [digoxin] | inhibit | 
C[C@@H]1O[C@@H](O[C@H]2C[C@@H](O)[C@]3(CO)[C@H]4[C@H](O)C[C@]5(C)[C@@H](C6=CC(=O)OC6)CC[C@]5(O)[C@@H]4CC[C@]3(O)C2)[C@H](O)[C@H](O)[C@H]1O [ouabain] | inhibit | 21
digitalis | inhibit | 
